Measurements as given in ChEMBL document CHEMBL1151081, “Synthesis of avermectin B1-4,4a-oxide: a precursor of potent anthelmintic agents” (Bioorg Med Chem Lett, 1992).
Values after ≈ are worked out from the molar mass of the structure shown.

How the values were obtained:
[1] = tested on: Gerbillinae; test: In vivo Effective dose against Trichostrongylus colubriformis in Trichostrongylus colubriformis assay using gerbils; format: functional
[2] = tested on: Caenorhabditis elegans; test: Inhibition of Caenorhabditis elegans binding evaluated using Caenorhabditis elegans motility assay; format: functional, organism-based
[3] = tested on: Artemia salina; test: Inhibition of Artemia salina evaluated using Arternia salina Immobilization assay; format: functional
[4] = tested on: Gerbillinae; test: In vivo Effective dose against Trichostrongylus colubriformis in T. colubriformis assay using Gerbils; format: functional
[5] = Caenorhabditis elegans, read-out: IC50

`CCC(C)[C@H]1O[C@]2(C=C[C@@H]1C)C[C@@H]1C[C@@H](C/C=C(\C)[C@@H](O[C@H]3C[C@H](OC)[C@@H](O[C@H]4C[C@H](OC)[C@@](O)(CNCc5ccco5)[C@H](C)O4)[C@H](C)O3)[C@@H](C)/C=C/C=C3\CO[C@@H]4[C@H](O)C(C)=C[C@@H](C(=O)O1)[C@]34O)O2` (some centres not stated) showed an ED85 [1] of 0.063 mg/kg, an IC50 [2, 5] of 0.1 ng/mL (≈ 0.102 nM) and an IC100 [3] of 10415 ng/mL.

Compound `CCC(C)[C@H]1O[C@]2(C=C[C@@H]1C)C[C@@H]1C[C@@H](C/C=C(\C)[C@@H](O[C@H]3C[C@H](OC)[C@@H](O[C@H]4C[C@H](OC)[C@@](O)(CSc5ncc[nH]5)[C@H](C)O4)[C@H](C)O3)[C@@H](C)/C=C/C=C3\CO[C@@H]4[C@H](O)C(C)=C[C@@H](C(=O)O1)[C@]34O)O2` (some centres not stated) has an ED85 [1] of 0.031 mg/kg, an IC50 [2, 5] of 0.13 ng/mL (≈ 0.132 nM) and an IC100 [3] of 430 ng/mL.

Work on `CCOC(CNC[C@@]1(O)[C@H](C)O[C@@H](O[C@H]2[C@H](C)O[C@@H](O[C@@H]3/C(C)=C/C[C@@H]4C[C@@H](C[C@]5(C=C[C@H](C)[C@@H](C(C)CC)O5)O4)OC(=O)[C@@H]4C=C(C)[C@@H](O)[C@H]5OC/C(=C\C=C\[C@@H]3C)[C@]54O)C[C@@H]2OC)C[C@@H]1OC)OCC` (some centres not stated) yielded an ED85 [1] of 0.125 mg/kg, an IC50 [2, 5] of 0.15 ng/mL (≈ 0.147 nM) and an IC100 [3] of 13900 ng/mL.

Work on `CCC(C)[C@H]1O[C@]2(C=C[C@@H]1C)C[C@@H]1C[C@@H](C/C=C(\C)[C@@H](O[C@H]3C[C@H](OC)[C@@H](O[C@H]4C[C@H](OC)[C@@](O)(CSCC(=O)OC)[C@H](C)O4)[C@H](C)O3)[C@@H](C)/C=C/C=C3\CO[C@@H]4[C@H](O)C(C)=C[C@@H](C(=O)O1)[C@]34O)O2` (some centres not stated) yielded an ED85 [1] of 0.25 mg/kg, an IC50 [2, 5] of 1.28 ng/mL (≈ 1.29 nM) and an IC100 [3] of 870 ng/mL.

For IVERMECTIN [listing 1 of 2 here], the IC50 [2] was 0.2 ng/mL.

`CCC(C)[C@H]1O[C@]2(C=C[C@@H]1C)C[C@@H]1C[C@@H](C/C=C(\C)[C@@H](O[C@H]3C[C@H](OC)[C@@H](O[C@H]4C[C@H](OC)C(O)(CSCC(=O)OC)C[C@H](C)O4)[C@H](C)O3)[C@@H](C)/C=C/C=C3\CO[C@@H]4[C@H](O)C(C)=C[C@@H](C(=O)O1)[C@]34O)O2` (some centres not stated) was tested, and the IC50 [2, 5] was 0.88 ng/mL (≈ 0.875 nM), the ED85 [4] was 0.063 mg/kg and the IC100 [3] was 1300 ng/mL.

With `CCC(C)[C@H]1O[C@]2(C=C[C@@H]1C)C[C@@H]1C[C@@H](C/C=C(\C)[C@@H](O[C@H]3C[C@H](OC)[C@@H](O[C@H]4C[C@H](OC)C(O)(CSC(C)=O)C[C@H](C)O4)[C@H](C)O3)[C@@H](C)/C=C/C=C3\CO[C@@H]4[C@H](O)C(C)=C[C@@H](C(=O)O1)[C@]34O)O2` (some centres not stated) the IC50 [2, 5] was 1.11 ng/mL (≈ 1.14 nM), the ED85 [4] was 0.031 mg/kg and the IC100 [3] was 1300 ng/mL.

Work on `CCC(C)[C@H]1O[C@]2(C=C[C@@H]1C)C[C@@H]1C[C@@H](C/C=C(\C)[C@@H](O[C@H]3C[C@H](OC)[C@@H](O[C@H]4C[C@H](OC)[C@@](O)(CSC(C)=O)[C@H](C)O4)[C@H](C)O3)[C@@H](C)/C=C/C=C3\CO[C@@H]4[C@H](O)C(C)=C[C@@H](C(=O)O1)[C@]34O)O2` (some centres not stated) yielded an ED85 [1] of 0.125 mg/kg, an IC50 [2, 5] of 0.18 ng/mL (≈ 0.187 nM) and an IC100 [3] of 1730 ng/mL.

With `CCC(C)[C@H]1O[C@]2(C=C[C@@H]1C)C[C@@H]1C[C@@H](C/C=C(\C)[C@@H](O[C@H]3C[C@H](OC)[C@@H](O[C@H]4C[C@H](OC)[C@@](O)(CNCC5CCCCC5)[C@H](C)O4)[C@H](C)O3)[C@@H](C)/C=C/C=C3\CO[C@@H]4[C@H](O)C(C)=C[C@@H](C(=O)O1)[C@]34O)O2` (some centres not stated) the ED85 [1] was 0.25 mg/kg, the IC50 [2, 5] was 0.13 ng/mL (≈ 0.13 nM) and the IC100 [3] was 55500 ng/mL.

With IVERMECTIN [listing 2 of 2 here] the ED85 [1] was 0.063 mg/kg and the IC100 [3] was 430 ng/mL.

With `CCC(C)[C@H]1O[C@]2(C=C[C@@H]1C)C[C@@H]1C[C@@H](C/C=C(\C)[C@@H](O[C@H]3C[C@H](OC)[C@@H](O[C@H]4C[C@H](OC)[C@@](O)(CSC5CCCCC5)[C@H](C)O4)[C@H](C)O3)[C@@H](C)/C=C/C=C3\CO[C@@H]4[C@H](O)C(C)=C[C@@H](C(=O)O1)[C@]34O)O2` (some centres not stated) the ED85 [1] was 0.25 mg/kg, the IC50 [2, 5] was 1.28 ng/mL (≈ 1.28 nM) and the IC100 [3] was 6930 ng/mL.

With `CCC(C)[C@H]1O[C@]2(C=C[C@@H]1C)C[C@@H]1C[C@@H](C/C=C(\C)[C@@H](O[C@H]3C[C@H](OC)[C@@H](O[C@H]4C[C@H](OC)C(O)(CC#N)C[C@H](C)O4)[C@H](C)O3)[C@@H](C)/C=C/C=C3\CO[C@@H]4[C@H](O)C(C)=C[C@@H](C(=O)O1)[C@]34O)O2` (some centres not stated) the IC50 [2, 5] was 0.7 ng/mL (≈ 0.756 nM), the ED85 [4] was 0.031 mg/kg and the IC100 [3] was 870 ng/mL.

For `CCCNC[C@@]1(O)[C@H](C)O[C@@H](O[C@H]2[C@H](C)O[C@@H](O[C@@H]3/C(C)=C/C[C@@H]4C[C@@H](C[C@]5(C=C[C@H](C)[C@@H](C(C)CC)O5)O4)OC(=O)[C@@H]4C=C(C)[C@@H](O)[C@H]5OC/C(=C\C=C\[C@@H]3C)[C@]54O)C[C@@H]2OC)C[C@@H]1OC` (some centres not stated), the ED85 [1] was 0.125 mg/kg, the IC50 [2, 5] was 0.17 ng/mL (≈ 0.18 nM) and the IC100 [3] was 6930 ng/mL.

With `CCC(C)[C@H]1O[C@]2(C=C[C@@H]1C)C[C@@H]1C[C@@H](C/C=C(\C)[C@@H](O[C@H]3C[C@H](OC)[C@@H](O[C@H]4C[C@H](OC)[C@@](O)(CSc5ccncc5)[C@H](C)O4)[C@H](C)O3)[C@@H](C)/C=C/C=C3\CO[C@@H]4[C@H](O)C(C)=C[C@@H](C(=O)O1)[C@]34O)O2` (some centres not stated) the ED85 [1] was 0.125 mg/kg, the IC50 [2, 5] was 0.11 ng/mL (≈ 0.11 nM) and the IC100 [3] was 6930 ng/mL.

In the case of `CCCNCC1(O)C[C@H](C)O[C@@H](O[C@H]2[C@H](C)O[C@@H](O[C@@H]3/C(C)=C/C[C@@H]4C[C@@H](C[C@]5(C=C[C@H](C)[C@@H](C(C)CC)O5)O4)OC(=O)[C@@H]4C=C(C)[C@@H](O)[C@H]5OC/C(=C\C=C\[C@@H]3C)[C@]54O)C[C@@H]2OC)C[C@@H]1OC` (some centres not stated), the IC50 [2, 5] is reported as 1.39 ng/mL (≈ 1.45 nM), the ED85 [4] is reported as 0.125 mg/kg and the IC100 [3] is reported as 27800 ng/mL.
